Source: patent publication US12240857B2 (priority 2017, dated 2025)
Where two headings read alike, the source gives them in different places.

Legend:
[1] = in vitro; conditions: African green monkey, CC50
[2] = tested on: EBOV mucin-domain-deleted glycoprotein pseudotyped VSV; test: microbe, parasite or virus in culture; type: cell-based, Zaire ebolavirus; conditions: Zaire ebolavirus, Vero, read-out: EC50 EBOV
[3] = tested on: BDBV mucin-domain-deleted glycoprotein pseudotyped VSV; test: microbe, parasite or virus in culture; type: cell-based, Bundibugyo ebolavirus; conditions: Vesicular stomatitis virus, Vero, read-out: EC50 BDBV

SMILES	CC50 [1] [nM]	EC50 [2] [nM]	EC50 [3] [nM]	EC50 ([2]; 24 h) [nM]	EC50 ([3]; 24 h) [nM]
O=C(CC12CC3CC(C1)CC(c1ccccc1)(C3)C2)N1CC2CC1CN2Cc1ccccc1 (stereo not drawn) [Example A33]	2200	320	300		
CC1CCN(C[C@H](O)COc2ccc(C34CC5CC(CC(C5)C3)C4)cc2)CC1 [Example D22, (2S)-1[4-(adamantan-1-yl)phenoxy]-3-(4-methylpiperidin-1-yl)propan-2-ol]	8500			52	85
CN1CCN(C[C@H](O)COc2ccc(C34CC5CC(CC(C5)C3)C4)cc2)CC1 [Example D27]	3500			130	190
CC(NC(=O)NCC(C)(C)N1CCOCC1)C12CC3CC(CC(C3)C1)C2 (stereo not drawn) [Example D45, 1-[1-(adamantan-1-yl)ethyl]-3-[2-methyl-2-(morpholin-4-yl)propyl]urea]	> 10000			6500	4600
O=C(CC12CC3CC(C1)CC(c1ccccc1)(C3)C2)NCC(=O)NC1CCN(Cc2ccccc2)CC1 [Example A12]	2500	360	430		
O=C(NC1CCNCC1)C12CC3CC(C1)CC(c1ccc(F)cc1)(C3)C2 [Example A75]	17700	300	300		
O=C(N1CC2(CN(Cc3ccccc3)C2)C1)C12CC3CC(C1)CC(c1ccccc1)(C3)C2 [Example A9]	10800	230	290		
O=C(CNC(=O)C12CC3CC(C1)CC(c1ccccc1)(C3)C2)NC1CCN(Cc2ccccc2)CC1 [Example A6]	16800	210	250		
CC12CC3(C)CC(C(=O)NC4CCNCC4)(C1)CC(c1ccccc1)(C2)C3 [Example A73]	13000	320	370		
CN1CCN(CCCOc2ccc(C34CC5CC(CC(C5)C3)C4)cc2)CC1 [Example C6, 1-(3-(4-(adamantan-1-yl)phenoxy)propyl)-4-methylpiperazine]	3800	120	640		
CC12CC3CC(C)(C1)CC(c1ccc(OC[C@@H](O)CN4CCCCC4)cc1)(C3)C2 [Example D39, (2S)-1-[4-(3,5-dimethyladamantan-1-yl)phenoxy]-3-(piperidin-1-yl) propan-2-ol]	3200			120	250
O=C(N1CC2(CCN(Cc3ccccc3)C2)C1)C12CC3CC(C1)CC(c1ccccc1)(C3)C2 [Example A10]	6900	240	210		
O=C(CC12CC3CC(C1)CC(c1ccccc1)(C3)C2)N1CCN(Cc2ccccc2)CC1 [Example A30]	7500	340	220		
CN(C)C1CCCN(C(=O)NCC23CC4CC(CC(C4)C2)C3)C1 (stereo not drawn) [Example D46, N-(adamantan-1-ylmethyl)-3-(dimethylamino)piperidine-1-carboxamide]	> 10000			6700	4300
O=C(CC12CC3CC(C1)CC(c1ccccc1)(C3)C2)NCC(=O)N1CCN(Cc2ccccc2)CC1 [Example A17]	> 10000	930	480		
CC12CC3CC(C(=O)NCCN)(C1)CC(c1ccccc1)(C3)C2 (stereo not drawn) [Example A79]	4200	260	290		
CC12CC3CC(C(=O)Nc4ccc(CN)cc4)(C1)CC(c1ccccc1)(C3)C2 (stereo not drawn) [Example A103]	7900	70	280		
O=C(N1CC2CCNC2C1)C12CC3CC(C1)CC(c1ccccc1)(C3)C2 (stereo not drawn) [Example A62]	30000	160	110		
CN1CCN(CC(O)COc2ccc(C34CC5CC(CC(C5)C3)C4)cc2)CC1 (stereo not drawn) [Example D28, 1-[4-(adamantan-1-yl)phenoxy]-3-(4-methylpiperazin-1-yl)propan-2-ol]	4200			150	210
O=C(NC1CCNCC1)C12CC3CC(C1)CC(c1ccc(O)cc1)(C3)C2 [Example A74]	14000	1720	> 1000		
O=C(N[C@@H]1CCCN(Cc2ccccc2)C1)C12CC3CC(C1)CC(c1ccccc1)(C3)C2 [Example A34]	1100	170	220		
NC1CCN(C(=O)C23CC4CC(C2)CC(c2ccccc2)(C4)C3)CC1 [Example A61]	> 10000	140	80		
N[C@H]1CC[C@H](C(=O)NC23CC4CC(C2)CC(c2ccccc2)(C4)C3)CC1 [Example E5, trans-4-amino-N-(3-phenyladamantan-1-yl)cyclohexane-1-carboxamide]	13300	680	230		
O=C(NCC12CC3CC(C1)CC(c1ccccc1)(C3)C2)C1CCNCC1 [Example E6, N-[(3-phenyladamantan-1-yl)methyl]piperidine-4-carboxamide]	11900	710	200		

SMILES	CC50 [1] [nM]	EC50 [2] [nM]	EC50 [3] [nM]	EC50 ([2]; 24 h) [nM]	EC50 ([3]; 24 h) [nM]
O=C(NCCC12CC3CC(CC(C3)C1)C2)c1ccc(CN2CCOCC2)cc1 [Example D41, N-[2-(adamantan-1-yl)ethyl]-4-(morpholin-4-ylmethyl)benzamide]	> 3000			2300	9700
O=C(CC12CC3CC(CC(C3)C1)C2)N[C@@H]1CCN(Cc2ccccc2)C1 [Example A52]	> 10000	4900	4000		
CN1CCC(N(C)C(=O)C23CC4CC(C2)CC(c2ccccc2)(C4)C3)CC1 [Example A27]	> 10000	280	140		
O=C(CC12CC3CC(CC(C3)C1)C2)NCC(=O)N[C@@H]1CCN(Cc2ccccc2)C1 [Example A56]	> 10000	3100	10000		
O=C(CNC(=O)C12CC3CC(C1)CC(c1ccccc1)(C3)C2)N1CCN(Cc2ccccc2)CC1 [Example A16]	12900	110	350		
CN1CC(NC(=O)C23CC4CC(C)(C2)CC(c2ccccc2)(C4)C3)C1 (stereo not drawn) [Example A42]	13900	121	190		
C[C@H]1CN(C(=O)C23CC4CC(C)(C2)CC(c2ccccc2)(C4)C3)CCN1 (stereo partly drawn) [Example A82]	4500	130	160		
CC12CC3CC(C(=O)NC4CC5(CNC5)C4)(C1)CC(c1ccccc1)(C3)C2 (stereo not drawn) [Example A89]	40700	250	880		
O=C(CC1CCNCC1)NC12CC3CC(C1)CC(c1ccccc1)(C3)C2 [Example E4, N-(3-phenyladamantan-1-yl)-2-(piperidin-4-yl)acetamide]	23100	1080	790		
O=C(CC1(c2ccccc2)C2CC3CC(C2)CC1C3)NC1CCNCC1 (stereo not drawn) [Example A99]	26700	690	190		
CC12CC3CC(C(=O)NCC4CCNCC4)(C1)CC(c1ccccc1)(C3)C2 (stereo not drawn) [Example A95]	23100	490	970		
CN1CC(NC(=O)C23CC4CC(C2)CC(c2ccccc2)(C4)C3)C1 [Example A35]	> 10000	280	220		
O=S(=O)(NC1CCNCC1)C12CC3CC(CC(C3)C1)C2 [Example A205, N-(piperidin-4-yl)adamantane-1-sulfonamide]	37000	> 1000	> 1000		
COc1ccc(C23CC4CC(CC(C(=O)NC5CCNCC5)(C4)C2)C3)cc1 [Example A67]	> 10000	390	410		
C[C@@H]1CN(C(=O)C23CC4CC(C)(C2)CC(c2ccccc2)(C4)C3)C[C@H](C)N1 (stereo partly drawn) [Example A86]	3900	155	180		
CC1CCN(CCCOc2ccc(C34CC5CC(CC(C5)C3)C4)cc2)CC1 [Example C4, 1-(3-(4-(adamantan-1-yl)phenoxy)propyl)-4-methylpiperidine]	7200	140	400		
O=C(CC12CC3CC(CC(C3)C1)C2)N1CCC2(CCN(Cc3ccccc3)C2)C1 (stereo not drawn) [Example A50, 2-(Adamantan-1-yl)-1-{7-benzyl-2,7-diazaspiro[4.4]nonan-2-yl}ethan-1-one]	54900	2900	3300		
O=C(CC12CC3CC(CC(C3)C1)C2)NCC(=O)NC1CCN(Cc2ccccc2)CC1 [Example A54]	> 10000	4000	10000		
CC1CCN(C[C@@H](O)COc2ccc(C34CC5CC(CC(C5)C3)C4)cc2)CC1 [Example D23, (2R)-1-[4-(adamantan-1-yl)phenoxy]-3-(4-methylpiperidin-1-yl)propan-2-ol]	3900			60	77
O=C(CC12CC3CC(CC(C3)C1)C2)NC1CCN(Cc2ccccc2)CC1 [Example A51]	10000	9000	> 10000		
CCN1CCN(CC(O)COc2ccc(C34CC5CC(CC(C5)C3)C4)cc2)CC1 (stereo not drawn) [Example D25, 1-[4-(adamantan-1-yl)phenoxy]-3-(4-ethylpiperazin-1-yl)propan-2-ol]	3100			90	240
CN1CC(NC(=O)CC23CC4CC(C2)CC(c2ccccc2)(C4)C3)C1 [Example A39]	19100	510	210		
CC12CC3CC(C(=O)N[C@H]4CC[C@@H](N)CC4)(C1)CC(c1ccccc1)(C3)C2 (stereo partly drawn) [Example A77]	8700	120	220		
O=C(CNC(=O)C12CC3CC(C1)CC(c1ccccc1)(C3)C2)N1CC2CC1CN2Cc1ccccc1 (stereo not drawn) [Example A8]	> 10000	190	220		
